Measured values published in PMC7316778 (Nature Communications, 2020).
Like-named read-outs stand apart in the source and are kept apart here.

How the values were obtained:
CDK14 (PFTK1)/cyclin Y = CDK14 (PFTK1)/cyclin Y (Homo sapiens, UniProt O94921); assay: SelectScreen kinase assay
Description: (§1) Selectivity profiling assays were performed by the Invitrogen SelectScreen™ Services. […] The concentration of ATP was selected to be equal to the KM, unless indicated otherwise.

CDK11/cyclin C = CDK11/cyclin C (Homo sapiens, UniProt Q9BWU1); assay: SelectScreen kinase assay; conditions: for Inhibition at 1 µM (%): CDK11/cyclin C, LanthaScreen Binding
Description: as §1

MAP2K4 (MEK4) = target: T1, MAP2K4 (MEK4) (Homo sapiens, UniProt P45985); assay: SelectScreen kinase assay
T1 sequence (P45985 1-399): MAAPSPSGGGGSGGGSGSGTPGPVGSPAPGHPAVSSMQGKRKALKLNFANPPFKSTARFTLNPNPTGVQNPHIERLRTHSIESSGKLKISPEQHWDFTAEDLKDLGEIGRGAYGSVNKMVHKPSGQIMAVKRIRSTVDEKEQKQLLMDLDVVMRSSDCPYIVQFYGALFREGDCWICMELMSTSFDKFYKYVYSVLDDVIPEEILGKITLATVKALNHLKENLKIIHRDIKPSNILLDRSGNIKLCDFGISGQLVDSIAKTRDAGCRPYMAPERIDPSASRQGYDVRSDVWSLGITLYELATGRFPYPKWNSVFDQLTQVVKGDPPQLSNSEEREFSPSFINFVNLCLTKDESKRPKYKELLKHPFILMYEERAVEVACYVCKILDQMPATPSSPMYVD
Description: as §1

KIT = KIT (Homo sapiens, UniProt P10721); assay: SelectScreen kinase assay
Sequence of KIT (P10721 26-976): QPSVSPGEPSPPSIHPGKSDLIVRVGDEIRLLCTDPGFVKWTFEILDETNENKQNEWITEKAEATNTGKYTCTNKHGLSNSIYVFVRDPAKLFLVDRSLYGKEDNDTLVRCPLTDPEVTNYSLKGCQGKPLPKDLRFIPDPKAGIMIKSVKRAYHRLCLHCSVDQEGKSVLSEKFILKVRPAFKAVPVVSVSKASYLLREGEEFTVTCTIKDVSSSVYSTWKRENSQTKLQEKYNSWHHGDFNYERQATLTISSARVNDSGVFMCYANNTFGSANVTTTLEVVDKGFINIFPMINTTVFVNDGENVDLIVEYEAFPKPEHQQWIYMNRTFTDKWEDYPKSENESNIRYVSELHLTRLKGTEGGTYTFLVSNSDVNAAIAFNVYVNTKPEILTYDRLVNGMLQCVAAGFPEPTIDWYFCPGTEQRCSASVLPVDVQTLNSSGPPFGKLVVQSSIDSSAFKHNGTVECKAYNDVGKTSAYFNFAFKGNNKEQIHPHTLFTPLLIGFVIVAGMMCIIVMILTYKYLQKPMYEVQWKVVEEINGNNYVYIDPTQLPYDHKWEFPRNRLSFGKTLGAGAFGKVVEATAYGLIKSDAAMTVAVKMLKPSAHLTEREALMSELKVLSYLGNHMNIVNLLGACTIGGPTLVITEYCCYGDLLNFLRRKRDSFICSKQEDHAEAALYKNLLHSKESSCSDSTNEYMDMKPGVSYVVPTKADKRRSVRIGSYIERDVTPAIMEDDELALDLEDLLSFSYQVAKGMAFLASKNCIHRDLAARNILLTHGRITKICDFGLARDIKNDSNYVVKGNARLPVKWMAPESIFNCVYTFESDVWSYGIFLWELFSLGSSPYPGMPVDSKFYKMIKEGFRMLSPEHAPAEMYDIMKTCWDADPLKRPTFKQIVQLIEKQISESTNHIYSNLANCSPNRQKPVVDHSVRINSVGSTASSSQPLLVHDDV
Description: as §1

FGR = FGR (Homo sapiens, UniProt P09769); assay: SelectScreen kinase assay
Sequence of FGR (P09769 whole entry): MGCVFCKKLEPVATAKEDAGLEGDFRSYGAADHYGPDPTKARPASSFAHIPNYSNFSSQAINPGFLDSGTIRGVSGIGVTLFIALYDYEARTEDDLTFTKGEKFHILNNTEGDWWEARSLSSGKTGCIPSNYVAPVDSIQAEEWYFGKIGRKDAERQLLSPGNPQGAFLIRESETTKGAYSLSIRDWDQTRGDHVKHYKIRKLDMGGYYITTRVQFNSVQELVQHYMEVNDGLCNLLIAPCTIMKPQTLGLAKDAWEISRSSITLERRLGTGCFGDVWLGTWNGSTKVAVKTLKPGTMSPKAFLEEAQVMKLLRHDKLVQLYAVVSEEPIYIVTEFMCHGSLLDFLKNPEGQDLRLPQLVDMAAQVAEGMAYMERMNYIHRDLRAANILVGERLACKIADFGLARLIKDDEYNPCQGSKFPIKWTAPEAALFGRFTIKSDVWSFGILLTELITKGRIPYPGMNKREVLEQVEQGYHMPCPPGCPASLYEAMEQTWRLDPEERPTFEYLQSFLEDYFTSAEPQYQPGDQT
Description: as §1

CAMK1D (CaMKI delta) = CAMK1D (CaMKI delta) (Homo sapiens, UniProt Q8IU85); assay: SelectScreen kinase assay
Sequence of CAMK1D (CaMKI delta) (Q8IU85 whole entry): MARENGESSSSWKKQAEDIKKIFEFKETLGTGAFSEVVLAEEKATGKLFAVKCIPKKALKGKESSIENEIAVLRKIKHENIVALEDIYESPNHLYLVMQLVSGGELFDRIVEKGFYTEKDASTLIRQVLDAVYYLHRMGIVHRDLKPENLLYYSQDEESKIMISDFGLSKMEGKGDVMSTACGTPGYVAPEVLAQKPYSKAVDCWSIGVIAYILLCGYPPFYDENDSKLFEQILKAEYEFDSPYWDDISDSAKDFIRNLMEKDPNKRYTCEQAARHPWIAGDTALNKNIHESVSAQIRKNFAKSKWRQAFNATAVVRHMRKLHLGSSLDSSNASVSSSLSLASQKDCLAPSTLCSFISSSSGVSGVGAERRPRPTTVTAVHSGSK
Description: as §1

~150 kDa protein = ~150 kDa protein (Homo sapiens, UniProt O14976); assay: Gel-based target engagement in HL-60 neutrophils; conditions: HL-60, read-out: Inhibition of off-target labeling
Description: Data represent means ± SEM.
The term in situ is used to designate experiments in which live cell cultures are treated with inhibitor, whereas the term in vitro refers to experiments in which the inhibitor is incubated with cell lysates. Compounds were diluted in growth medium from a 1000x concentrated stock solution in DMSO. […] After 48 h, cells were treated with compound for 1 h. Cells were collected by suspension in PBS and centrifuged (1000g, 5 min, rt). Pellets were flash-frozen in liquid nitrogen and stored at −80 °C until use. For in situ treatment post-differentiation, HL-60 cells were differentiated as described above and incubated with compound for 1 h unless specified otherwise. Cells were collected by suspension for non-adherent cells and trypsinization for adherent cells. After collection, cells were centrifuged (200g, 5 min, rt) and washed in equal volume of PBS (1000g, 5 min, rt). Cell pellets were flash-frozen in liquid nitrogen and stored at −80 °C until use.

CSF1R (FMS) = CSF1R (FMS) (Homo sapiens, UniProt P07333); assay: SelectScreen kinase assay
Sequence of CSF1R (FMS) (P07333 20-972): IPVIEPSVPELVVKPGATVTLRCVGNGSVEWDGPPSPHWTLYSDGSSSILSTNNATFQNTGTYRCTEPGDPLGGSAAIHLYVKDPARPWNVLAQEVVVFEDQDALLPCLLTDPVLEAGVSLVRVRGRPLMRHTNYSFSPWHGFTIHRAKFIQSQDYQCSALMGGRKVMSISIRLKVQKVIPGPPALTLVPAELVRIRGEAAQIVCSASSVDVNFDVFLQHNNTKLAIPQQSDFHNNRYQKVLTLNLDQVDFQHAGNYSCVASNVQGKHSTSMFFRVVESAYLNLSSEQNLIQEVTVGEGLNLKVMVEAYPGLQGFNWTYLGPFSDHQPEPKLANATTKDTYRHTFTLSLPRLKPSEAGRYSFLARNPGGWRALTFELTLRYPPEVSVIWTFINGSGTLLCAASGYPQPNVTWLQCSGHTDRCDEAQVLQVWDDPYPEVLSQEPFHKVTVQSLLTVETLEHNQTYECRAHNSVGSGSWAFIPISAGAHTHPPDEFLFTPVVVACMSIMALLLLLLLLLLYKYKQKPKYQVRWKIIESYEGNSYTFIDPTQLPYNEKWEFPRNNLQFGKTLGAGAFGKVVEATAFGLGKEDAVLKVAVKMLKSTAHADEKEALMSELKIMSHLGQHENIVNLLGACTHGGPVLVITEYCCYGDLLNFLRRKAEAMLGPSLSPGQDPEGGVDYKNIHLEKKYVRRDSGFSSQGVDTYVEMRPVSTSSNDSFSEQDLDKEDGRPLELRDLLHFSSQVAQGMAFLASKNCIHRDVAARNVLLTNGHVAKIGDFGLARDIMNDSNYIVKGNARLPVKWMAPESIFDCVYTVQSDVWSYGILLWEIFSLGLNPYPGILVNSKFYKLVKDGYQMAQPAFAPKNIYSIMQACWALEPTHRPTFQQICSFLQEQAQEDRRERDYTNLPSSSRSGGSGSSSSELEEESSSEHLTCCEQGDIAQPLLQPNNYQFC
Description: as §1

GAK = target: T2, GAK (Homo sapiens, UniProt O14976); assay: SelectScreen kinase assay
T2 sequence (O14976 1-1311): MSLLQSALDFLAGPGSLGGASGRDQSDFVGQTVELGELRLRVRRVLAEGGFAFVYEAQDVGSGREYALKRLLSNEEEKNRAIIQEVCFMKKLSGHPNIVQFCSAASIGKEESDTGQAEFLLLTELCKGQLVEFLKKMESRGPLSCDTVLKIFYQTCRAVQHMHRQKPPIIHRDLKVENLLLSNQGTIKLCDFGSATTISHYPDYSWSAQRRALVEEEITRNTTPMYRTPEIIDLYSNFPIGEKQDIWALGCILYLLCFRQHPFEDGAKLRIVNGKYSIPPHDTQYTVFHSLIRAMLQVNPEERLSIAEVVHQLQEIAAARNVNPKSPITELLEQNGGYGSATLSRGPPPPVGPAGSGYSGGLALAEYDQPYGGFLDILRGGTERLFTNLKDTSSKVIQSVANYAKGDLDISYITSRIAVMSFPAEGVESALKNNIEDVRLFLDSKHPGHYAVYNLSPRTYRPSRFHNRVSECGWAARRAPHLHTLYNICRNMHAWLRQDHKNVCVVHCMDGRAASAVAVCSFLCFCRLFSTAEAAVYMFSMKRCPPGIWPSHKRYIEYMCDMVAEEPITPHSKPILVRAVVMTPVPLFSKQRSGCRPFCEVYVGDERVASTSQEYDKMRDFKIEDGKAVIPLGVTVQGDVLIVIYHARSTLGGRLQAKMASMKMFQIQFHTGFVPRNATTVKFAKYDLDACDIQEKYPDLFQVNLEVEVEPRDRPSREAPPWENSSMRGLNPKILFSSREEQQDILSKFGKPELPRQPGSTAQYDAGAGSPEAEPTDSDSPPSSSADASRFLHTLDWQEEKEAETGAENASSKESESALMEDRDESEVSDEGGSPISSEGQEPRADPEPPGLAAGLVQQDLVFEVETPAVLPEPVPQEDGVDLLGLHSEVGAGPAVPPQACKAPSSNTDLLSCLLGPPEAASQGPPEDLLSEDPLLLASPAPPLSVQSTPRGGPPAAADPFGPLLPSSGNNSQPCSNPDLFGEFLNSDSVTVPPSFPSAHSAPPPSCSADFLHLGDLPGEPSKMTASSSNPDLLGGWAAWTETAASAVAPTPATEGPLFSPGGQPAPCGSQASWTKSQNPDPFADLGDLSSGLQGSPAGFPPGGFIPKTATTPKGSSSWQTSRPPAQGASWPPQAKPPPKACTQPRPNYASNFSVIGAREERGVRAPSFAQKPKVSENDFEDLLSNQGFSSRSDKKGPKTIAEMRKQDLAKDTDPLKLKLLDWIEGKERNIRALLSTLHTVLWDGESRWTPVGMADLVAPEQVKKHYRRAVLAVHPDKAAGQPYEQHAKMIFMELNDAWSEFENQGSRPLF
Description: as §1

MYLK4 = target: T3, MYLK4 (Homo sapiens, UniProt Q86YV6); assay: SelectScreen kinase assay
T3 sequence (Q86YV6 1-388): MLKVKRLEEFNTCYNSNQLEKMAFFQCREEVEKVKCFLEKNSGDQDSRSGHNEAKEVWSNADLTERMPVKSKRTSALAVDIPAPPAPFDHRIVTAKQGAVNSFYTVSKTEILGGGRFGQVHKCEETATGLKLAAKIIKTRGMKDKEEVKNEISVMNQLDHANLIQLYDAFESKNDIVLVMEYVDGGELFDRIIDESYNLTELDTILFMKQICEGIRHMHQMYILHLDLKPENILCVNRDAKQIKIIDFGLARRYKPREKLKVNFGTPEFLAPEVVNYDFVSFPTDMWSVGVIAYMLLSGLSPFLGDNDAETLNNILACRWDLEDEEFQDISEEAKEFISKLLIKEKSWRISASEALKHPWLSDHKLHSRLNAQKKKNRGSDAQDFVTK
Description: as §1

[1] = 1 h, 1 μM WEL028, 1 h preincubation
[2] = IC50 on that kinase divided by IC50 on FES^S700C

Sequence of CDK11/cyclin C (Q9BWU1 whole entry): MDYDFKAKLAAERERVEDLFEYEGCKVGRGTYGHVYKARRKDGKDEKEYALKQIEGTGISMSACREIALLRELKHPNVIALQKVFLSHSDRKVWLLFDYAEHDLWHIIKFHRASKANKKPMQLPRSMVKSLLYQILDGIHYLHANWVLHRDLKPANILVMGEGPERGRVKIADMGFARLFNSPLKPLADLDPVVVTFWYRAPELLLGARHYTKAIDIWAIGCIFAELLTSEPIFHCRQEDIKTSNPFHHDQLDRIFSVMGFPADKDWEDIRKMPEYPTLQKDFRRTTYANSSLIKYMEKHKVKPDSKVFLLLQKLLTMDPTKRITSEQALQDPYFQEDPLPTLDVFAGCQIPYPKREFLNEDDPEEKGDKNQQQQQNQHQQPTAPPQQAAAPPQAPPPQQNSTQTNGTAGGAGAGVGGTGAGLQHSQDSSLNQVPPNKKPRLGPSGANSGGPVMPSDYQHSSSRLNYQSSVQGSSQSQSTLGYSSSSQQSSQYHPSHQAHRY
Sequence of CDK11/cyclin C (P24863 whole entry partner): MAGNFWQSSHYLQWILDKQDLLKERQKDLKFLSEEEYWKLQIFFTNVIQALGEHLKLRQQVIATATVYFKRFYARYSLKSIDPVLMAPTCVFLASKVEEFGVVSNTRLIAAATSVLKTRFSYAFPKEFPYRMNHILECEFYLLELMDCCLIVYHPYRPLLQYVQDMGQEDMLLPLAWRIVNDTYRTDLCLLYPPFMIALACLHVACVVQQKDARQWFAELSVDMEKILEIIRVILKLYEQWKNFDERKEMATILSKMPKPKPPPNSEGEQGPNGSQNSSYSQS
Sequence of CDK14 (PFTK1)/cyclin Y (O94921 whole entry): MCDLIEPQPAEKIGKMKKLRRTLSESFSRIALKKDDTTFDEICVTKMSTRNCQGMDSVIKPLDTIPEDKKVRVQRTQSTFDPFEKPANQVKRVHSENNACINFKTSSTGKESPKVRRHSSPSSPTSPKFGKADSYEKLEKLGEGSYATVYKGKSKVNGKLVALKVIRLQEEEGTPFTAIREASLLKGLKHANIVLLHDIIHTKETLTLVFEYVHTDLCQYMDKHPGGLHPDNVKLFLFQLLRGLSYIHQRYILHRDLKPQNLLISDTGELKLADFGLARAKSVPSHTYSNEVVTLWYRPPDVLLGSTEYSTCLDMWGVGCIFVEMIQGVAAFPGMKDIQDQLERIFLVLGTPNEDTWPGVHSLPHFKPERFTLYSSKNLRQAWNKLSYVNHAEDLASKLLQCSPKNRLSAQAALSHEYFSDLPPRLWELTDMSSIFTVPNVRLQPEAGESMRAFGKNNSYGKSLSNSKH
Sequence of CDK14 (PFTK1)/cyclin Y (Q8ND76 whole entry partner): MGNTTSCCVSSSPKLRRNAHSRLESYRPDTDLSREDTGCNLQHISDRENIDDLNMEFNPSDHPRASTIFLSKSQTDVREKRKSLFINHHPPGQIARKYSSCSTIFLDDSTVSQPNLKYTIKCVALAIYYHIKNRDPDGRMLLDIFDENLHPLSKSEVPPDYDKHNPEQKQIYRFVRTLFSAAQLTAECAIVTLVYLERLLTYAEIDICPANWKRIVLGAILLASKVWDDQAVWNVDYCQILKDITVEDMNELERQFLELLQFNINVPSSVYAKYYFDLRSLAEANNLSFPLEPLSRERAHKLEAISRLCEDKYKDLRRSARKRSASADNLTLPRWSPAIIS

Compound: C#CCOc1ccc(Nc2ncc(Cl)c(Nc3ccccc3NC(=O)C=C)n2)c(OC)c1 [Compound 6]
- Inhibition (%) (CDK14 (PFTK1)/cyclin Y; 1 μM WEL028, 1 h preincubation): -7%
- Inhibition at 1 µM (%) (CDK14 (PFTK1)/cyclin Y; CDK14 (PFTK1)/cyclin Y, 1 µM, LanthaScreen Binding): -14%
- Inhibition (%) (CDK11/cyclin C; 1 μM WEL028, 1 h preincubation): 5%
- Inhibition at 1 µM (%) (CDK11/cyclin C): 2%
- Inhibition at 1 µM (%) (CDK11/cyclin C; listed as WEL028, 1 µM): 7%
- IC50 (MAP2K4 (MEK4)): 3.98 nM
- inhibition at 1 µM (MAP2K4 (MEK4); [1]): 104%
- Apparent fold selectivity (MAP2K4 (MEK4); [2]): 1 fold
- inhibition at 1 µM (MAP2K4 (MEK4); read-out: Inhibition at 1 µM (%), MAP2K4 (MEK4), 1 µM, LanthaScreen Binding): 103%
- inhibition at 1 µM (KIT; [1]): 18%
- Inhibition at 1 µM (%) (KIT; KIT, 1 µM, ZLYTE, ATP Km app, listed as WEL028, 1 µM): 16%
- inhibition at 1 µM (KIT; read-out: Inhibition at 1 µM (%), KIT, 1 µM, ZLYTE, ATP Km app): 21%
- inhibition at 1 µM (FGR; [1]): 10%
- Inhibition at 1 µM (%) (FGR; FGR, 1 µM, ZLYTE, ATP Km app, listed as WEL028, 1 µM): 12%
- inhibition at 1 µM (FGR; read-out: Inhibition at 1 µM (%), FGR, 1 µM, ZLYTE, ATP Km app): 7%
- inhibition at 1 µM (CAMK1D (CaMKI delta); [1]): 6%
- inhibition at 1 µM (CAMK1D (CaMKI delta); read-out: Inhibition at 1 µM (%), CAMK1D (CaMKI delta), 1 µM, ZLYTE, ATP Km app): 5%
- inhibition at 0.1 µM (~150 kDa protein): ~80%
- inhibition at 1 µM (CSF1R (FMS); [1]): 11%
- Inhibition at 1 µM (%) (CSF1R (FMS); CSF1R (FMS), 1 µM, ZLYTE, ATP Km app, listed as WEL028, 1 µM): 8%
- inhibition at 1 µM (CSF1R (FMS); read-out: Inhibition at 1 µM (%), CSF1R (FMS), 1 µM, ZLYTE, ATP Km app): 13%
- IC50 (GAK): 12.6 nM
- inhibition at 1 µM (GAK; [1]): 108%
- Inhibition at 1 µM (%) (GAK; GAK, 1 µM, LanthaScreen Binding, listed as WEL028, 1 µM): 109%
- Apparent fold selectivity (GAK; [2]): 3 fold
- inhibition at 1 µM (GAK; read-out: Inhibition at 1 µM (%), GAK, 1 µM, LanthaScreen Binding): 108%
- inhibition at 1 µM (MYLK4; [1]): 10%
- Inhibition at 1 µM (%) (MYLK4; MYLK4, 1 µM, LanthaScreen Binding, listed as WEL028, 1 µM): 14%
- inhibition at 1 µM (MYLK4; read-out: Inhibition at 1 µM (%), MYLK4, 1 µM, LanthaScreen Binding): 7%
